Source: patent US20240158404A1, “MODULATORS OF ALPHA-1 ANTITRYPSIN” (Vertex Pharmaceuticals Incorporated, priority 2022, published 2024)

Columns and labels:
AAT = target: T1, AAT (Homo sapiens, UniProt P01009, E366K); assay: Compound Quality score (potency in AAT functional assay multiplied by unbound clearance); conditions: compound potency (EC50) x unbound clearance; class symbols
T1 construct: expressed in transfected cells; host or cells: NL20 human bronchial epithelial cells (NL20-SI cell line), with doxycycline added alongside the compounds
T1 sequence (P01009 25-418 E366K): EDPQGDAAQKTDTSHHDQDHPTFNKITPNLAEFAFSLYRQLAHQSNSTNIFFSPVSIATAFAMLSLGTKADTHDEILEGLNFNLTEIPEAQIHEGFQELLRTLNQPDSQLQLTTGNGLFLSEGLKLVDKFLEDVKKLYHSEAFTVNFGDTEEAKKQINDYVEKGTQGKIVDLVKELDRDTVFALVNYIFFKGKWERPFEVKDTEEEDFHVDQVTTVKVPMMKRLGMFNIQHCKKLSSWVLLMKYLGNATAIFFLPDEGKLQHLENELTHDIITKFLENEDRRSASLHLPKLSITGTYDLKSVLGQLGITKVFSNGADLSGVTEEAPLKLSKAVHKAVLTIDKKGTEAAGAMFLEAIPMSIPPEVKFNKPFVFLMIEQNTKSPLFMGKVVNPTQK
Excerpt: As used herein, the term “Compound Quality” refers to the potency of a compound multiplied (x) by the compound's unbound clearance as measured using the assays described in Example 6.
The terms “unbound clearance” refer to unbound intrinsic clearance (unbound CLint) in hepatocytes—the intrinsic clearance a drug would have in the absence of protein binding. Unbound CLint=CLint,hep/fu,hep, where CLint,hep is intrinsic clearance in hepatocytes and fu,hep is unbound fraction in hepatocytes.
A key consideration for the selection of compounds suitable for clinical development is the projection of human dose as described in Equations 1-3. Two key parameters that comprise the dose equation are the unbound clearance of a compound and the plasma efficacious exposure (also referred to herein as compound potency). Together these parameters are known to one skilled in the art as a measurement of Compound Quality and suitability for advancement into clinical development. Thus, when evaluating AAT modulator compounds, one needs to consider both the potency and unbound clearance parameters (i.e., Compound Quality). The relationship between these two parameters can be challenging to predict.
The values provided in the table below are calculated by multiplying the EC50 of each of the compounds by the result from the clearance assay procedures described in Section C above and rounded to two significant figures. In the table below, the following meanings apply for Compound Quality (i.e., compound potency x unbound clearance) values: “++++” means ≤0.2; “+++” means >0.20 and ≤0.30; “++” means >0.30 and ≤0.40; “+” means >0.40 and ≤0.50.

[1] = Exposure multiple in rat 5-day toxicology studies; format: in vivo; design: key to Exposure Multiple: ratio of tox-species AUC to target efficacious AUCss; conditions: for EM Score: based on the maximum exposure multiple achieved in the rat 5-day toxicology study; for Exposure Multiple: rat 5-day toxicology study, vs predicted human efficacious exposure
Excerpt: “Exposure multiple” as used herein, refers to an assessment of relative compound exposure in toxicology studies. The calculation of an exposure multiple is accomplished by comparing the exposure (AUC) achieved in a toxicology species relative to the target efficacious exposure at steady state (AUCss). The larger exposure multiple provides the opportunity to explore higher doses relative to efficacious concentration in clinical development. However, the exposure that results in an adverse toxicological outcome is unpredictable.
The calculation of an exposure multiple is accomplished by comparing the plasma exposure (AUC) achieved in a toxicology species relative to the target efficacious exposure at steady state (AUCss). […] In addition, this exposure multiple can allow for further exploration of the desired pharmacology due to the opportunity for a larger window established in toxicology studies. However, the exposure that results in a toxicological outcome in preclinical toxicology studies is unpredictable.
Human exposure multiple (EM) values shown relate to the fold increase in exposure achieved in rat 5-day toxicology studies for a given dose relative to the predicted efficacious exposure anticipated in human (based on cellular NL20 EC50 in vitro efficacy). The exposure multiple score is based on the maximum exposure multiple achieved in the given study. This allows relative comparison across compounds when also considering the administered dose. […] In the tables below, the following meanings apply for exposure multiple scores: “−” means <1; “+” means 1-10; “++” means 10-20; “+++” means 20-30; “++++” means 30-50; and “+++++” means >50.

SMILES | Compound Quality (AAT) | EM Score [1] | also measured
CC[C@@](O)(COC)c1c(-c2ccc(C(=O)O)cc2)c2c(F)c3[nH]ncc3cc2n1-c1ccc(F)c(C)c1 [Compound 2, (S)-4-(8-fluoro-5-(4-fluoro-3-methylphenyl)-6-(2-hydroxy-1-methoxybutan-2-yl)-1,5-dihydropyrrolo[2,3-f]indazol-7-yl)benzoic acid] | +++ (“+++” means >0.20 and ≤0.30) | ++++ (“++++” means 30-50) | Exposure Multiple ([1]; Bid dose 50 (daily 100)): 2; Exposure Multiple ([1]; Bid dose 200 (daily 400)): 10; Exposure Multiple ([1]; Bid dose 500 (daily 1000)): 40
CC[C@@](O)(COC)c1c(-c2ccc(C(=O)O)cc2)c2c(F)c3[nH]ncc3cc2n1-c1ccc(F)c(OC)c1 [Compound 3, (S)-4-(8-fluoro-5-(4-fluoro-3-methoxyphenyl)-6-(2-hydroxy-1-methoxybutan-2-yl)-1,5-dihydropyrrolo[2,3-f]indazol-7-yl)benzoic acid] | +++ (“+++” means >0.20 and ≤0.30) | +++++ (“+++++” means >50) | Exposure Multiple ([1]; Bid dose 50 (daily 100)): 2; Exposure Multiple ([1]; Bid dose 200 (daily 400)): 17; Exposure Multiple ([1]; Bid dose 500 (daily 1000)): 60
CC[C@@](O)(COC)c1c(-c2ccc(C(=O)O)cc2)c2c(F)c3[nH]ncc3cc2n1-c1ccc(F)c(F)c1 [Compound 5, (S)-4-(5-(3,4-Difluorophenyl)-8-fluoro-6-(2-hydroxy-1-methoxybutan-2-yl)-1,5-dihydropyrrolo[2,3-f]indazol-7-yl)benzoic acid] | ++++ (“++++” means ≤0.2) | +++++ (“+++++” means >50) | Exposure Multiple ([1]; Bid dose 50 (daily 100)): 39; Exposure Multiple ([1]; Bid dose 150 (daily 300)): 114; Exposure Multiple ([1]; Bid dose 300 (daily 600)): 173
CC[C@](O)(COC)c1c(-c2ccc(C(=O)O)cc2)c2cc3[nH]ncc3cc2n1-c1ccc(F)c(Cl)c1 [reference compound] | – | + (“+” means 1-10) | Exposure Multiple ([1]; Bid dose 100 (daily 200)): 2; Exposure Multiple ([1]; Bid dose 250 (daily 500)): 1; Exposure Multiple ([1]; Bid dose 500 (daily 1000)): 2
CCC(O)(COC)c1c(-c2ccc(C(=O)O)cc2)c2cc3[nH]ncc3cc2n1-c1ccc(F)cc1 (centres unmarked) [reference compound] | – | ++ (“++” means 10-20) | Exposure Multiple ([1]; Bid dose 250 (daily 500)): 14
COCC(C)(C)c1c(-c2ccc(C(=O)O)cc2)c2cc3[nH]ncc3cc2n1-c1ccc(F)cc1 [reference compound] | – | ++ (“++” means 10-20) | Exposure Multiple ([1]; Bid dose 25 (daily 50)): 5; Exposure Multiple ([1]; Bid dose 50 (daily 100)): 13; Exposure Multiple ([1]; Bid dose 100 (daily 200)): 18
CC(C)(CC#N)c1c(-c2ccc(C(=O)O)cc2)c2cc3[nH]ncc3cc2n1-c1ccc(F)cc1 [reference compound] | – | + (“+” means 1-10) | Exposure Multiple ([1]; Bid dose 287.5 (daily 575)): 1.8
O=C(O)c1ccc(-c2c(C3CCOCC3)n(-c3ccc(F)c(F)c3)c3cc4cn[nH]c4cc23)cc1 [reference compound] | – | − (“−” means <1) | Exposure Multiple ([1]; Bid dose 300 (daily 600)): 0.4
CCC(O)(COC)c1c(-c2ccc(C(=O)O)c(C)c2)c2c(F)c3[nH]ncc3cc2n1-c1ccc(F)cc1 (centres unmarked) [Compound 35] | ++++ (“++++” means ≤0.2) | – | –
[2H]C([2H])([2H])OCC(O)(CC)c1c(-c2ccc(C(=O)O)cc2)c2c(F)c3[nH]ncc3cc2n1-c1ccc(F)cc1 (centres unmarked) [Compound 52] | ++ (“++” means >0.30 and ≤0.40) | – | –
[2H]C1([2H])C([2H])([2H])C([2H])([2H])[C@](O)(c2c(-c3ccc(C(=O)O)cc3)c3c(F)c4[nH]ncc4cc3n2-c2ccc(F)cc2)[C@@]([2H])(OC)C1([2H])[2H] [Compound 29] | ++++ (“++++” means ≤0.2) | – | –
CCC(O)(COC)c1c(-c2ccc(C(=O)O)cc2F)c2c(F)c3[nH]ncc3cc2n1-c1ccc(F)c(F)c1 (centres unmarked) [Compound 62] | + (“+” means >0.40 and ≤0.50) | – | –
[2H]C([2H])([2H])Oc1cc(-n2c(C3(O)CCCCC3OC)c(-c3ccc(C(=O)O)cc3)c3c(F)c4[nH]ncc4cc32)ccc1F (centres unmarked) [Compound 22] | ++++ (“++++” means ≤0.2) | – | –
CC[C@@](O)(COC)c1c(-c2ccc(C(=O)O)cc2)c2c(F)c3[nH]ncc3cc2n1-c1cc(F)c(F)c(OC)c1 [Compound 16] | ++ (“++” means >0.30 and ≤0.40) | – | –
COc1cc(-n2c(C3(O)CCCCC3F)c(-c3ccc(C(=O)O)cc3)c3c(F)c4[nH]ncc4cc32)ccc1F (centres unmarked) [Compound 66] | ++ (“++” means >0.30 and ≤0.40) | – | –
CCOCC(O)(c1c(-c2ccc(C(=O)O)cc2)c2c(F)c3[nH]ncc3cc2n1-c1ccc(F)cc1)C1CC1 (centres unmarked) [Compound 14] | ++ (“++” means >0.30 and ≤0.40) | – | –
[2H]C([2H])([2H])OC[C@@](O)(c1c(-c2ccc(C(=O)O)cc2)c2c(F)c3[nH]ncc3cc2n1-c1ccc(F)c(C)c1)C([2H])([2H])C([2H])([2H])[2H] [Compound 57] | + (“+” means >0.40 and ≤0.50) | – | –
CCOCC(O)(CC)c1c(-c2ccc(C(=O)O)cc2)c2c(F)c3[nH]ncc3cc2n1-c1ccc(F)c(OC)c1 (centres unmarked) [Compound 9] | +++ (“+++” means >0.20 and ≤0.30) | – | –
[2H]C([2H])([2H])Oc1cc(-n2c(C3(O)CCCC[C@@H]3OC)c(-c3ccc(C(=O)O)c(C)c3)c3c(F)c4[nH]ncc4cc32)ccc1F (some centres unmarked) [Compound 54] | ++++ (“++++” means ≤0.2) | – | –
CO[C@H]1CCCCC1(O)c1c(-c2ccc(C(=O)O)c(F)c2)c2c(F)c3[nH]ncc3cc2n1-c1ccc(F)cc1 (some centres unmarked) [Compound 67] | ++ (“++” means >0.30 and ≤0.40) | – | –
[2H]C([2H])([2H])C([2H])([2H])C(O)(COC)c1c(-c2ccc(C(=O)O)cc2)c2c(F)c3[nH]ncc3cc2n1-c1ccc(F)c(Cl)c1 (centres unmarked) [Compound 12] | +++ (“+++” means >0.20 and ≤0.30) | – | –
[2H]C([2H])([2H])C([2H])([2H])C(O)(COC)c1c(-c2ccc(C(=O)O)cc2)c2c(F)c3[nH]ncc3cc2n1-c1ccc(F)c(C)c1 (centres unmarked) [Compound 19] | +++ (“+++” means >0.20 and ≤0.30) | – | –
CC[C@](O)(COC)c1c(-c2ccc(C(=O)O)cc2)c2c(F)c3[nH]ncc3cc2n1-c1ccc(F)c(C)c1 [Compound 7] | +++ (“+++” means >0.20 and ≤0.30) | – | –
CC[C@@](O)(COC)c1c(-c2ccc(C(=O)O)cc2)c2c(F)c3[nH]ncc3cc2n1-c1ccc(F)cc1 [Compound 1, (S)-4-(8-Fluoro-5-(4-fluorophenyl)-6-(2-hydroxy-1-methoxybutan-2-yl)-1,5-dihydropyrrolo[2,3-f]indazol-7-yl)benzoic acid] | ++++ (“++++” means ≤0.2) | +++++ (“+++++” means >50) | Exposure Multiple ([1]; Bid dose 50 (daily 100)): 10; Exposure Multiple ([1]; Bid dose 200 (daily 400)): 82; Exposure Multiple ([1]; Bid dose 500 (daily 1000)): 126
CCC(O)(COC)c1c(-c2ccc(C(=O)O)c(C)c2)c2c(F)c3[nH]ncc3cc2n1-c1ccc(F)c(F)c1 (centres unmarked) [Compound 17] | +++ (“+++” means >0.20 and ≤0.30) | – | –
CC[C@@](O)(COC)c1c(-c2ccc(C(=O)O)cc2)c2c(F)c3[nH]ncc3cc2n1-c1ccc(F)c(Cl)c1 [Compound 4] | +++ (“+++” means >0.20 and ≤0.30) | ++++ (“++++” means 30-50) | Exposure Multiple ([1]; Bid dose 50 (daily 100)): 8; Exposure Multiple ([1]; Bid dose 200 (daily 400)): 21; Exposure Multiple ([1]; Bid dose 400 (daily 800)): 32
[2H]C([2H])([2H])C([2H])([2H])C(O)(COC)c1c(-c2ccc(C(=O)O)cc2)c2c(F)c3[nH]ncc3cc2n1-c1ccc(F)c(C)c1 (centres unmarked) [Compound 38] | +++ (“+++” means >0.20 and ≤0.30) | – | –
